Measured values from US12398154B2, “Azaquinazoline pan-KRas inhibitors” (Mirati Therapeutics, Inc., priority 2020, dated 2025).

Experiments:
KRas G12A = KRas G12A (Homo sapiens, UniProt P01116, G12A); assay: biochemical;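 further: binding to KRas measured by TR-FRET displacement after one hour at room temperature, IC50 from a four-parameter fit of percent-of-control values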
Procedure: (§2) The ability of a compound to bind to KRas was measured using a TR-FRET displacement assay. […] After a 60-minute incubation at room temperature, the reaction was measured using a BMG LABTECH CLARIO star Plus via TR-FRET. […] The POC values were fit to a 4-parameter IC50 equation and the IC50 value reported.

KRas G12C = KRas G12C (Homo sapiens, UniProt P01116, G12C); assay: biochemical;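 further: binding to KRas assessed by TR-FRET displacement after one hour incubation at room temperature, potency fitted from percent-of-control values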
Procedure: as §2

KRas Q61H = molecular target: T1, KRas Q61H (Homo sapiens, UniProt P01116, Q61H); assay: KRas binding assay (TR-FRET displacement);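 further: TR-FRET signal read after one hour at room temperature, IC50 derived by four-parameter fitting of percent-of-control values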
T1 construct: Biotinylated KRas (corresponding to amino acids 1-169, produced at Accelegan Inc.); biotin (biotinylated); purchased Accelegan Inc
Procedure: as §2

KRas G12D = KRas G12D (Homo sapiens, UniProt P01116, G12D); assay: biochemical;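 further: TR-FRET displacement binding assay on KRas, read after a one-hour incubation at room temperature, IC50 fitted from percent-of-control values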
Procedure: as §2

[1] = test system: phospho-ERK in PSN-1 (G12R) cells; assay: Inhibition of KRas-mediated phosphorylation of ERK (in-cell western); assay type: cell-based; details: Homo sapiens, PSN1, 3 hours compound, phospho-ERK normalized to GAPDH
Outline: (§1)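 Cells treated 3 h with compounds (0.5% DMSO), fixed in formaldehyde and methanol-permeabilized. In-cell western for phospho-ERK (Thr202/Tyr204) normalized to GAPDH, as % of DMSO control; IC50 by 4-parameter fit.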

[2] = test system: phospho-ERK in AsPC-1 (G12D) cells; assay: as above; assay type: cell-based; details: Homo sapiens, ASPC1, 3 h, 3 hours compound, phospho-ERK normalized to GAPDH
Outline: as §1

[3] = test system: phospho-ERK in HCT116 (G13D) cells; assay: as above; assay type: cell-based; details: Homo sapiens, HCT-116, 3 hours compound, phospho-ERK normalized to GAPDH
Outline: as §1

[4] = test system: phospho-ERK in NCI-H358 (G12C) cells; assay: as above; assay type: cell-based; details: Homo sapiens, 3 hours compound, phospho-ERK normalized to GAPDH
Outline: as §1

[5] = test system: phospho-ERK in A549 (G12S) cells; assay: as above; assay type: cell-based; details: Homo sapiens, 3 hours compound, phospho-ERK normalized to GAPDH
Outline: as §1

[6] = test system: phospho-ERK in MKN1 (WTdep) cells; assay: as above; assay type: cell-based; details: Homo sapiens, MKN-1, 3 hours compound, phospho-ERK normalized to GAPDH
Outline: as §1

[7] = test system: phospho-ERK in NCI-H727 (G12V) cells; assay: as above; assay type: cell-based; details: Homo sapiens, NCI-H727, 3 h, 3 hours compound, phospho-ERK normalized to GAPDH
Outline: as §1

[8] = test system: phospho-ERK in NCI-H460 (Q61H) cells; assay: as above; assay type: cell-based; details: Homo sapiens, NCI-H460, 3 h, 3 hours compound, phospho-ERK normalized to GAPDH
Outline: as §1

KRas G12S = KRas G12S (Homo sapiens, UniProt P01116, G12S); assay: biochemical;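 further: TR-FRET displacement binding to KRas, read after one hour incubation at room temperature, IC50 from four-parameter fit of percent of control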
Procedure: as §2

KRas G13D = molecular target: T2, KRas G13D (Homo sapiens, UniProt P01116, G13D); assay: KRas binding assay (TR-FRET displacement);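 further: One-hour room temperature incubation before TR-FRET reading, IC50 from a four-parameter curve fit to percent-of-control data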
T2 construct: Biotinylated KRas (corresponding to amino acids 1-169, produced at Accelegan Inc.); biotin (biotinylated); purchased Accelegan Inc
Procedure: as §2

KRas G12V = KRas G12V (Homo sapiens, UniProt P01116, G12V); assay: biochemical;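 further: KRas binding measured by TR-FRET displacement at room temperature, IC50 fitted from percent of control values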
Procedure: as §2

KRas WT = KRas WT (Homo sapiens, UniProt P01116); assay: biochemical;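 further: binding to KRas read as TR-FRET displacement after a one-hour room-temperature incubation, IC50 derived from percent-of-control values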
Procedure: as §2

KRas G12R = KRas G12R (Homo sapiens, UniProt P01116, G12R); assay: biochemical;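 further: TR-FRET displacement assay of compound binding to KRas, read after one hour at room temperature, potency from a four-parameter fit of percent-of-control values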
Procedure: as §2

pERK in PSN1 cells = assay: Inhibition of KRas phosphorylation of ERK (Cisbio HTRF pERK assay); details: Homo sapiens, PSN1, 3 h, read-out: Inhibition (HTRF IC50) of KRas-mediated Phosphorylation of ERK, PSN1
pERK in MKN1 cells = assay: as above; details: Homo sapiens, MKN-1, 3 h, read-out: Inhibition (HTRF IC50) of KRas-mediated Phosphorylation of ERK, MKN1
pERK in ASPC1 cells = assay: as above; details: Homo sapiens, ASPC1, read-out: Inhibition (HTRF IC50) of KRas-mediated Phosphorylation of ERK, AsPC-1
pERK in H727 cells = assay: as above; details: Homo sapiens, NCI-H727, read-out: Inhibition (HTRF IC50) of KRas-mediated Phosphorylation of ERK, H727
pERK in HCT116 cells = assay: as above; details: Homo sapiens, HCT-116, read-out: Inhibition (HTRF IC50) of KRas-mediated Phosphorylation of ERK, HCT116

Sequence of KRas G12R (P01116 1-169 isoform P01116-2 G12R): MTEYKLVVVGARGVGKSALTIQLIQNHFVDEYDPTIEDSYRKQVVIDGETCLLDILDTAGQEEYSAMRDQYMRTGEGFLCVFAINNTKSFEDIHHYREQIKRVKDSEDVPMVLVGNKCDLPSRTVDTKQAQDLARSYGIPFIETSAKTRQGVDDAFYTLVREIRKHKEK
Sequence of KRas G12D (P01116 1-169 isoform P01116-2 G12D): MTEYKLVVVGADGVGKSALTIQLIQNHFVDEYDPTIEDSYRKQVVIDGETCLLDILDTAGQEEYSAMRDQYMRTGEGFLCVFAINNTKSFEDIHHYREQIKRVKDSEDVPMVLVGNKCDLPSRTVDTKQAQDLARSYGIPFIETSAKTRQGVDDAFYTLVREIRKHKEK
Sequence of KRas G12V (P01116 1-169 isoform P01116-2 G12V): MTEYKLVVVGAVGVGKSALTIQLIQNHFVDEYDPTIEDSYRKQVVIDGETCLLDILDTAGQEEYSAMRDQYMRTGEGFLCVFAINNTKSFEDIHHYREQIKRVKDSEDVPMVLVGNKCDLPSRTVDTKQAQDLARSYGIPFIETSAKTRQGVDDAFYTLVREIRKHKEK
Sequence of KRas G12C (P01116 1-169 isoform P01116-2 G12C): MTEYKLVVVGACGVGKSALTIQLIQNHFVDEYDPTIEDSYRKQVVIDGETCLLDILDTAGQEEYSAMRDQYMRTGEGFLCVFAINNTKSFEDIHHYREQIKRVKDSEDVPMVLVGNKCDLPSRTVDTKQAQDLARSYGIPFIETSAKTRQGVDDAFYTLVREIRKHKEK
Sequence of KRas WT (P01116 1-169 isoform P01116-2): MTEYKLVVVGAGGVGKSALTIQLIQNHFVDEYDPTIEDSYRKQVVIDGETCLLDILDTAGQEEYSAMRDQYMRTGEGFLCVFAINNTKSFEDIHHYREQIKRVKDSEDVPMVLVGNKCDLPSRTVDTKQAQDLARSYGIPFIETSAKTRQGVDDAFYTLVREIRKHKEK
Sequence of KRas G12A (P01116 1-169 isoform P01116-2 G12A): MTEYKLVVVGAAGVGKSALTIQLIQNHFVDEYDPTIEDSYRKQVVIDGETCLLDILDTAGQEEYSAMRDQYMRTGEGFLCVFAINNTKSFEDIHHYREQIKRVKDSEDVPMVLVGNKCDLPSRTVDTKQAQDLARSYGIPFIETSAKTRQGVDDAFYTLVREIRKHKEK
Sequence of KRas G12S (P01116 1-169 isoform P01116-2 G12S): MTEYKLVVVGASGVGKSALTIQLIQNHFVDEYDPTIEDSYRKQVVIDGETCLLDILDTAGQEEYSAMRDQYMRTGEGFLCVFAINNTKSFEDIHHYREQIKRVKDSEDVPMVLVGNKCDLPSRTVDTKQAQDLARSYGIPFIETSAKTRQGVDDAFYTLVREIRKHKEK
T2 sequence (P01116 1-169 isoform P01116-2 G13D): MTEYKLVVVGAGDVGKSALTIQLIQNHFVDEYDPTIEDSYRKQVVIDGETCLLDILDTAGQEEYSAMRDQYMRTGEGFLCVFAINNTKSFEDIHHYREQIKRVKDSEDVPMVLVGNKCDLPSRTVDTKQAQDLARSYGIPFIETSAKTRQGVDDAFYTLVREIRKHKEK
T1 sequence (P01116 1-169 isoform P01116-2 Q61H): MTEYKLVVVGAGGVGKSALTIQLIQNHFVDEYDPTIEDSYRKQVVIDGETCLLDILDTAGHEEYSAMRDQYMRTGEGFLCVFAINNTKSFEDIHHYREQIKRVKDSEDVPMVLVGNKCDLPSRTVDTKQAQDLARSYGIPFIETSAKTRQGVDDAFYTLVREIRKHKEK

CCc1c(F)ccc2cc(O)cc(-c3ncc4c(N5CCCCC5)nc(OC[C@@]56CCCN5C[C@H](O)C6)nc4c3F)c12 [Example 7]
IC50 (KRas G12A): ≤ 2 nM | IC50 (KRas G12C): ≤ 2 nM | IC50 (KRas Q61H): 3 nM | IC50 (KRas G12D): ≤ 2 nM | IC50 [1]: 3590 nM | IC50 [2]: 802 nM | IC50 [3]: 627 nM | IC50 [4]: 199 nM | IC50 [5]: 1090 nM | IC50 [6]: 32 nM | IC50 [7]: 530 nM | IC50 [8]: 416 nM | IC50 (KRas G12S): ≤ 2 nM | IC50 (KRas G13D): 3 nM | IC50 (KRas G12V): ≤ 2 nM | IC50 (KRas WT): 3 nM | IC50 (KRas G12R): ≤ 2 nM

CCc1c(F)ccc2cccc(-c3ncc4c(N5CCC[C@@](C)(O)C5)nc(OC[C@@]56CCCN5C[C@H](F)C6)nc4c3F)c12 [Example 16, (R)-1-(7-(8-ethyl-7-fluoronaphthalen-1-yl)-8-fluoro-2-(((2R,7aS)-2-fluorohexahydro-1H-pyrrolizin-7a-yl)methoxy)pyrido[4,3-d]pyrimidin-4-yl)-3-methylpiperidin-3-ol]
IC50 (pERK in PSN1 cells): ≥ 10000 nM | IC50 [1]: ≥ 10000 nM | IC50 [2]: 654 nM | IC50 [3]: 2180 nM | IC50 [4]: 1180 nM | IC50 [5]: 1760 nM | IC50 [6]: 802 nM | IC50 [7]: ≥ 10000 nM | IC50 [8]: 113 nM | IC50 (pERK in MKN1 cells): 275 nM

C#Cc1c(F)ccc2cc(O)cc(-c3ncc4c(N5CCCC6(CNC(=O)C6)C5)nc(OC[C@@]56CCCN5C[C@H](F)C6)nc4c3F)c12 (stereo partly shown) [Example 24]
IC50 (KRas G12A): ≤ 2 nM | IC50 (KRas G12C): ≤ 2 nM | IC50 (KRas G12D): ≤ 2 nM | IC50 [1]: 3690 nM | IC50 [2]: 1680 nM | IC50 [3]: 1370 nM | IC50 [4]: 454 nM | IC50 [5]: ≥ 10000 nM | IC50 [6]: 406 nM | IC50 [7]: 4720 nM | IC50 [8]: 2820 nM | IC50 (KRas G12S): ≤ 2 nM | IC50 (KRas G12V): ≤ 2 nM | IC50 (KRas WT): ≤ 2 nM | IC50 (KRas G12R): ≤ 2 nM

CC1(O)CCCN(c2nc(OCC34CCCN3CCC4)nc3c(F)c(-c4cc(O)cc(Cl)c4C4CC4)ncc23)C1 (stereo not shown) [Example 71, 1-(7-(3-chloro-2-cyclopropyl-5-hydroxyphenyl)-8-fluoro-2-((tetrahydro-1H-pyrrolizin-7a(5H)-yl)methoxy)pyrido[4,3-d]pyrimidin-4-yl)-3-methylpiperidin-3-ol]
IC50 (pERK in ASPC1 cells): 2100 nM | IC50 (pERK in H727 cells): 1920 nM | IC50 (KRas G12D): 3 nM | IC50 [1]: ≥ 10000 nM | IC50 [2]: 4730 nM | IC50 [3]: 1950 nM | IC50 [4]: 361 nM | IC50 [5]: ≥ 10000 nM | IC50 [6]: 140 nM | IC50 [7]: 2240 nM | IC50 [8]: 2170 nM | IC50 (KRas G12V): ≤ 2 nM | IC50 (KRas G12R): 6 nM

C[C@@H]1C[C@@H]1c1c(Cl)cc(O)cc1-c1ncc2c(N3CCCC(C)(O)C3)nc(OCC34CCCN3CCC4)nc2c1F (stereo partly drawn) [Example 132, 1-(7-(3-chloro-5-hydroxy-2-((1S,2R)-2-methylcyclopropyl)phenyl)-8-fluoro-2-((tetrahydro-1H-pyrrolizin-7a(5H)-yl)methoxy)pyrido[4,3-d]pyrimidin-4-yl)-3-methylpiperidin-3-ol]
IC50 (pERK in ASPC1 cells): 623 nM | IC50 (pERK in H727 cells): 912 nM | IC50 (KRas G12D): 9 nM | IC50 [1]: ≥ 10000 nM | IC50 [2]: 104 nM | IC50 [3]: ≥ 10000 nM | IC50 [4]: 131 nM | IC50 [5]: ≥ 10000 nM | IC50 [6]: 27 nM | IC50 [7]: ≥ 10000 nM | IC50 [8]: 206 nM | IC50 (KRas G12V): 5 nM | IC50 (KRas G12R): 6 nM

CCc1c(F)ccc2cc(O)cc(-c3ncc4c(N5CCCC6(CNC(=O)N6)C5)nc(OC[C@@]56CCCN5C[C@H](F)C6)nc4c3F)c12 (stereo partly shown) [Example 133]
IC50 (pERK in ASPC1 cells): 144 nM | IC50 (pERK in HCT116 cells): 360 nM | IC50 (pERK in H727 cells): 246 nM | IC50 (KRas G12D): ≤ 2 nM | IC50 [1]: ≥ 10000 nM | IC50 [2]: 156 nM | IC50 [3]: 650 nM | IC50 [4]: 41 nM | IC50 [5]: 55 nM | IC50 [6]: 171 nM | IC50 [7]: 612 nM | IC50 [8]: 49 nM | IC50 (KRas G12V): ≤ 2 nM | IC50 (KRas G12R): ≤ 2 nM

CCc1c(F)ccc2cc(O)cc(-c3ncc4c(NCCC(N)=O)nc(OC[C@@]56CCCN5C[C@H](F)C6)nc4c3F)c12 [Example 141]
IC50 (pERK in ASPC1 cells): 641 nM | IC50 (pERK in H727 cells): 2130 nM | IC50 (KRas G12D): ≤ 2 nM | IC50 [1]: ≥ 10000 nM | IC50 [2]: 210 nM | IC50 [3]: ≥ 10000 nM | IC50 [4]: 88 nM | IC50 [5]: 875 nM | IC50 [6]: 282 nM | IC50 [7]: ≥ 10000 nM | IC50 [8]: 1110 nM | IC50 (KRas G12V): ≤ 2 nM | IC50 (KRas G12R): ≤ 2 nM

CCc1c(F)ccc2cc(O)cc(-c3ncc4c(NCc5cn[nH]c5)nc(OC[C@@]56CCCN5C[C@H](F)C6)nc4c3F)c12 [Example 160, 4-(4-(((1H-pyrazol-4-yl)methyl)amino)-8-fluoro-2-(((2R,7aS)-2-fluorohexahydro-1H-pyrrolizin-7a-yl)methoxy)pyrido[4,3-d]pyrimidin-7-yl)-5-ethyl-6-fluoronaphthalen-2-ol]
IC50 (KRas G12D): 15 nM | IC50 [1]: ≥ 10000 nM | IC50 [2]: 5520 nM | IC50 [3]: 1600 nM | IC50 [4]: 149 nM | IC50 [5]: 974 nM | IC50 [6]: 146 nM | IC50 [7]: 727 nM | IC50 [8]: 471 nM | IC50 (KRas G12V): ≤ 2 nM | IC50 (KRas G12R): ≤ 2 nM

CCc1c(F)ccc2cc(O)cc(-c3ncc4c(NCc5c[nH]cn5)nc(OC[C@@]56CCCN5C[C@H](F)C6)nc4c3F)c12 [Example 164, 4-(4-(((1H-imidazol-4-yl)methyl)amino)-8-fluoro-2-(((2R,7aS)-2-fluorohexahydro-1H-pyrrolizin-7a-yl)methoxy)pyrido[4,3-d]pyrimidin-7-yl)-5-ethyl-6-fluoronaphthalen-2-ol]
IC50 (KRas G12D): 28 nM | IC50 [1]: ≥ 10000 nM | IC50 [2]: ≥ 10000 nM | IC50 [3]: ≥ 10000 nM | IC50 [4]: 602 nM | IC50 [5]: ≥ 10000 nM | IC50 [6]: 207 nM | IC50 [7]: ≥ 10000 nM | IC50 [8]: 6820 nM | IC50 (KRas G12V): 3 nM | IC50 (KRas G12R): 3 nM

CCc1c(F)ccc2cc(O)cc(-c3ncc4c(NCCCc5ccncc5)nc(OC[C@@]56CCCN5C[C@H](F)C6)nc4c3F)c12 [Example 176, 5-ethyl-6-fluoro-4-(8-fluoro-2-(((2R,7aS)-2-fluorohexahydro-1H-pyrrolizin-7a-yl)methoxy)-4-((3-(pyridin-4-yl)propyl)amino)pyrido[4,3-d]pyrimidin-7-yl)naphthalen-2-ol]
IC50 (KRas G12D): 108 nM | IC50 [1]: ≥ 10000 nM | IC50 [2]: ≥ 10000 nM | IC50 [3]: ≥ 10000 nM | IC50 [4]: 1250 nM | IC50 [5]: ≥ 10000 nM | IC50 [6]: 701 nM | IC50 [7]: 3950 nM | IC50 [8]: 3510 nM | IC50 (KRas G12V): 20 nM | IC50 (KRas G12R): 30 nM

CCc1c(F)ccc2cc(O)cc(-c3ncc4c(OCCCc5cccnc5)nc(OC[C@@]56CCCN5C[C@H](F)C6)nc4c3F)c12 [Example 298, 5-ethyl-6-fluoro-4-(8-fluoro-2-(((2R,7aS)-2-fluorohexahydro-1H-pyrrolizin-7a-yl)methoxy)-4-(3-(pyridin-3-yl)propoxy)pyrido[4,3-d]pyrimidin-7-yl)naphthalen-2-ol]
IC50 (KRas G12D): 1520 nM | IC50 [1]: ≥ 10000 nM | IC50 [2]: ≥ 10000 nM | IC50 [3]: ≥ 10000 nM | IC50 [4]: 5010 nM | IC50 [5]: ≥ 10000 nM | IC50 [6]: 2710 nM | IC50 [7]: ≥ 10000 nM | IC50 [8]: ≥ 10000 nM | IC50 (KRas G12V): 133 nM | IC50 (KRas G12R): 99 nM
